# In patent US8180580B2, “Method for identifying a compound that modulates SIR2 protein activity” (The Wistar Institute, priority 2007, dated 2012):
# Experiments:
# Sir2 = Sir2 (Saccharomyces cerevisiae, UniProt P53686); assay type: biochemical
# Procedure: In parallel to the in silico screen, a solution screen for Sir2 effectors was carried out. A library containing about 10,000 Diversity Oriented Synthesis (DOS) compounds and natural product sub-libraries of compounds was screened using both yHst2 and hSIRT1 proteins.
# Hst2 (residues 1-294) = Hst2 (residues 1-294) (Saccharomyces cerevisiae, UniProt P53686); assay: biased in vitro screening assay for relief of nicotinamide inhibition (Fluor de Lys); assay type: biochemical; conditions: […] μM nicotinamide present
# Procedure: This in vitro screen was carried out as follows.
# Sequence of Sir2 (P53686 1-294): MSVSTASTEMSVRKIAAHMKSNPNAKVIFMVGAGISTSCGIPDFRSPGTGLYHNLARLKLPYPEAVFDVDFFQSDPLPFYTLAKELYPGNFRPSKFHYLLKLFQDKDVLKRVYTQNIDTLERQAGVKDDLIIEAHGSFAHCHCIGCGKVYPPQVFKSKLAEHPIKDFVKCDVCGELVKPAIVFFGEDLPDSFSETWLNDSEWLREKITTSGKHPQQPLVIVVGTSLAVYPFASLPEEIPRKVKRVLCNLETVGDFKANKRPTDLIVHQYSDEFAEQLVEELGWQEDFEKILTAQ
# Sequence of Hst2 (residues 1-294) (P53686 1-294): as above
Compound,IC50 (Sir2),Fold Activation (Hst2 (residues 1-294))
O=C(O)CCN1Cc2ccccc2C1=O,19.8 ± 1.1 µM,
"6-(4-Fluoro- phenyl)-2,3- diphenyl-1,5- dihydro- imidazo[1,2- α]imidazole",,2.9
"CC1(C)CC(=O)C2=C(C1)NC1=C(C(=O)CC(C)(C)C1)C2c1cccc(F)c1 [9-(3-Fluoro-phenyl)-3,3,6,6-tetramethyl-2,4,6,7,9,10-hexahydro-2H,5H-acridine-1,8-dione]",,2.2
Zinc pyrithione [reference compound],1.8 ± 1.3 µM,
